Test results reported in ChEMBL document CHEMBL6134809 (Eur J Med Chem, 2025).
Converted amounts (≈) assume the structure as drawn. The source made the active and inactive calls. No cut-off for these calls is given here.

Tests used:
Pseudomonas aeruginosa [1] = experiment: Antibiofilm activity against Pseudomonas aeruginosa PAO1 measured for 24 hrs by crystal violet staining; format: functional
Pseudomonas aeruginosa [2] = experiment: Antibacterial activity against Pseudomonas aeruginosa PAO1 assessed as bacterial growth inhibition by CLSI based broth microdilution method; format: functional
Staphylococcus aureus [3] = experiment: Antibacterial activity against methicillin-resistant Staphylococcus aureus ATCC 43300 assessed as bacterial growth inhibition by CLSI based broth microdilution method; format: functional
Pseudomonas aeruginosa [4] = experiment: Antibiofilm activity against Pseudomonas aeruginosa PAO1 assessed as […] biofilm biomass at 1/2 times MIC measured for 24 hrs by crystal violet staining; format: functional
Staphylococcus aureus [5] = experiment: Antibacterial activity against Staphylococcus aureus ATCC 25923 assessed as bacterial growth inhibition by CLSI based broth microdilution method; format: functional
Pseudomonas aeruginosa [6] = experiment: Potency index, ratio of ciprofloxacin MIC to test compound MIC for antibacterial activity against Pseudomonas aeruginosa PAO1 assessed as bacterial growth inhibition by CLSI based broth microdilution method; format: functional
Pseudomonas aeruginosa [7] = experiment: Antibacterial activity against Pseudomonas aeruginosa FB assessed as bacterial growth inhibition by CLSI based broth microdilution method; format: functional
Pseudomonas aeruginosa [8] = experiment: Antibiofilm activity against Pseudomonas aeruginosa PAO1 assessed as […] biofilm biomass at MIC measured for 24 hrs by crystal violet staining; format: functional
Staphylococcus aureus [9] = experiment: Antibacterial activity against methicillin-resistant Staphylococcus aureus ATCC 515992 assessed as bacterial growth inhibition by CLSI based broth microdilution method; format: functional
Pseudomonas aeruginosa [10] = experiment: Antibacterial activity against Pseudomonas aeruginosa 1129 assessed as bacterial growth inhibition by CLSI based broth microdilution method; format: functional
Pseudomonas aeruginosa [11] = experiment: Antibacterial activity against Pseudomonas aeruginosa 1167 assessed as bacterial growth inhibition by CLSI based broth microdilution method; format: functional
Pseudomonas aeruginosa [12] = experiment: Antibacterial activity against Pseudomonas aeruginosa 1121 assessed as bacterial growth inhibition by CLSI based broth microdilution method; format: functional
Pseudomonas aeruginosa [13] = experiment: Antibiofilm activity against Pseudomonas aeruginosa PAO1 assessed as […] biofilm biomass at 1/4 times MIC measured for 24 hrs by crystal violet staining; format: functional
Staphylococcus aureus [14] = experiment: Antibacterial activity against methicillin-resistant Staphylococcus aureus ATCC 513045 assessed as bacterial growth inhibition by CLSI based broth microdilution method; format: functional
Pseudomonas aeruginosa [15] = experiment: Inhibition of swimming motility in Pseudomonas aeruginosa PAO1 at 4.27 uM incubated for 16 hrs relative to control; format: functional
Pseudomonas aeruginosa [16] = experiment: Inhibition of twitching motility in Pseudomonas aeruginosa PAO1 at 4.27 uM incubated for 16 hrs relative to control; format: functional
Pseudomonas aeruginosa [17] = experiment: Inhibition of swarming motility in Pseudomonas aeruginosa PAO1 at 4.27 uM incubated for 16 hrs relative to control; format: functional
[18] = Toxicity in Caenorhabditis elegans infected with Pseudomonas aeruginosa PAO1 assessed as nematode survival at MIC incubated at 24 hrs relative to control
Pseudomonas aeruginosa [19] = experiment: Antibiofilm activity against Pseudomonas aeruginosa PAO1 assessed as reduction in biofilm formation at MIC measured for 24 hrs in presence of 10 uM of FeCl3 by crystal violet staining; format: functional; parameters: scale not given: the % may be the effect or the level left
[20] = Toxicity in Caenorhabditis elegans infected with Pseudomonas aeruginosa PAO1 assessed as nematode survival at MIC incubated at 48 hrs relative to control
Pseudomonas aeruginosa [21] = experiment: Antibiofilm activity against Pseudomonas aeruginosa PAO1 assessed as reduction in biofilm formation at MIC measured for 24 hrs in presence of 40 uM of FeCl3 by crystal violet staining; format: functional; parameters: scale not given: the % may be the effect or the level left
Pseudomonas aeruginosa [22] = experiment: Antivirulence activity against Pseudomonas aeruginosa PAO1 assessed as reduction in rhamnolipid level at 4.27 uM incubated for 24 hrs by absorbance based assay relative to control; format: functional; parameters: scale not given: the % may be the effect or the level left
[23] = Toxicity in Caenorhabditis elegans infected with Pseudomonas aeruginosa PAO1 assessed as nematode survival at MIC incubated at 12 hrs
Pseudomonas aeruginosa [24] = experiment: Antibiofilm activity against Pseudomonas aeruginosa assessed as biofilm eradication at 4 times MIC measured after 24 hrs by crystal violet staining based analysis; format: functional
Pseudomonas aeruginosa [25] = experiment: Antibacterial activity against wild type Pseudomonas aeruginosa PAO1 […] delta pvdS up to 8 times MIC; format: functional, organism-based
Pseudomonas aeruginosa [26] = experiment: Antibacterial activity against wild type Pseudomonas aeruginosa PAO1 up to 8 times MIC; format: functional, organism-based
HEK293 [27] = experiment: Cytotoxicity against HEK293 cells assessed as reduction in cell viability at 100 uM incubated for 16 hrs by MTT assay; format: toxicity, cell-based; settings: human, hek293, 16 h
Pseudomonas aeruginosa [28] = experiment: Antivirulence activity against Pseudomonas aeruginosa PAO1 assessed as reduction in pyocyanin level at 4.27 uM incubated for 24 hrs by absorbance based assay relative to control; format: functional; parameters: scale not given: the % may be the effect or the level left
Pseudomonas aeruginosa [29] = experiment: Antivirulence activity against Pseudomonas aeruginosa PAO1 assessed as reduction in pyocyanin level in flask incubated for 24 hrs by absorbance based assay relative to control; format: functional, organism-based
Pseudomonas aeruginosa [30] = experiment: Antibiofilm activity against Pseudomonas aeruginosa PAO1 assessed as reduction in biofilm formation at 1/2 times MIC measured for 24 hrs in presence of 10 uM of FeCl3 by crystal violet staining; format: functional; parameters: scale not given: the % may be the effect or the level left
Pseudomonas aeruginosa [31] = experiment: Antivirulence activity against Pseudomonas aeruginosa PAO1 assessed as reduction in pyocyanin level incubated for 24 hrs by absorbance based assay; format: functional, organism-based
Pseudomonas aeruginosa [32] = experiment: Antibiofilm activity against Pseudomonas aeruginosa PAO1 assessed as reduction in biofilm formation at 1/4 times MIC measured for 24 hrs in presence of 40 uM of FeCl3 by crystal violet staining; format: functional; parameters: scale not given: the % may be the effect or the level left
Pseudomonas aeruginosa [33] = experiment: Potency index, ratio of ciprofloxacin MIC to test compound MIC for antibiofilm activity against Pseudomonas aeruginosa PAO1 assessed as […] biofilm biomass at 1/2 times MIC measured for 24 hrs by crystal violet staining; format: functional
Pseudomonas aeruginosa [34] = experiment: Selectivity ratio of MIC for antibacterial activity against Pseudomonas aeruginosa PAO1 overexpressing fpvA mutant up to 8 times MIC to MIC for antibacterial activity against Pseudomonas aeruginosa PAO1 up to 8 times MIC; format: functional
Pseudomonas aeruginosa [35] = experiment: Inhibition of twitching motility in Pseudomonas aeruginosa PAO1 incubated for 16 hrs; format: functional, organism-based; settings: dose 4.27 µM
Pseudomonas aeruginosa [36] = experiment: Potency index, ratio of ciprofloxacin MIC to test compound MIC for antibiofilm activity against Pseudomonas aeruginosa PAO1 measured for 24 hrs by crystal violet staining; format: functional
Pseudomonas aeruginosa [37] = experiment: Antibiofilm activity against Pseudomonas aeruginosa assessed as reduction in biofilm eradication at 1/4 times MIC measured after 24 hrs by crystal violet staining based analysis; format: functional, organism-based
Pseudomonas aeruginosa [38] = experiment: Antibiofilm activity against Pseudomonas aeruginosa PAO1 assessed as reduction in biofilm formation at 1/2 times MIC measured for 24 hrs in presence of 40 uM of FeCl3 by crystal violet staining; format: functional; parameters: scale not given: the % may be the effect or the level left
A549 = experiment: Cytotoxicity against human A549 cells assessed as reduction in cell viability up to 100 uM incubated for 16 hrs by MTT assay; format: toxicity, cell-based; settings: a549, 16 h
Pseudomonas aeruginosa [39] = experiment: Antivirulence activity against Pseudomonas aeruginosa PAO1 assessed as reduction in rhamnolipid level incubated for 24 hrs by absorbance based assay; format: functional, organism-based
Pseudomonas aeruginosa [40] = experiment: Antibiofilm activity against Pseudomonas aeruginosa PAO1 assessed as reduction in biofilm formation at 1/4 times MIC measured for 24 hrs in presence of 10 uM of FeCl3 by crystal violet staining; format: functional; parameters: scale not given: the % may be the effect or the level left
Pseudomonas aeruginosa [41] = experiment: Antibacterial activity against Pseudomonas aeruginosa PAO1 overexpressing fpvA mutant up to 8 times MIC; format: functional, organism-based
HEK293 [42] = experiment: Cytotoxicity against HEK293 cells assessed as reduction in cell viability at 100 uM incubated for 16 hrs by MTT assay relative to control; format: toxicity, cell-based; settings: human, hek293, 16 h

Cn1cc(O)c(=O)cc1CNC(=O)c1cn(C2CC2)c2cc(N3CCNCC3)c(F)cc2c1=O
MIC (Pseudomonas aeruginosa [1]): 68.5 µM (≈ 32 µg/mL)
MIC (Pseudomonas aeruginosa [2]): 8.31 µM (≈ 3.88 µg/mL)
MIC (Staphylococcus aureus [3]): 16.6 µM (≈ 7.77 µg/mL)
Activity (Pseudomonas aeruginosa [4]): 82.4%
MIC (Staphylococcus aureus [5]): 16.6 µM (≈ 7.77 µg/mL)
Ratio (Pseudomonas aeruginosa [6]): 3
MIC (Pseudomonas aeruginosa [7]): 8.31 µM (≈ 3.88 µg/mL)
Activity (Pseudomonas aeruginosa [8]): 71.6%
MIC (Staphylococcus aureus [9]): > 200 µM
MIC (Pseudomonas aeruginosa [10]): 16.6 µM (≈ 7.77 µg/mL)
MIC (Pseudomonas aeruginosa [11]): 8.31 µM (≈ 3.88 µg/mL)
MIC (Pseudomonas aeruginosa [12]): 16.6 µM (≈ 7.77 µg/mL)
Activity (Pseudomonas aeruginosa [13]): 88.5%
MIC (Staphylococcus aureus [14]): 33.2 µM (≈ 15.5 µg/mL)

COC(=O)c1cn(C2CC2)c2cc(N3CCNCC3)c(F)cc2c1=O
MIC (Pseudomonas aeruginosa [1]): 185 µM (≈ 64 µg/mL)
MIC (Pseudomonas aeruginosa [2]): 185 µM (≈ 64 µg/mL)
MIC (Staphylococcus aureus [3]): > 200 µM
Activity (Pseudomonas aeruginosa [4]): 145.2%
MIC (Staphylococcus aureus [5]): > 200 µM
MIC (Pseudomonas aeruginosa [7]): > 200 µM
Activity (Pseudomonas aeruginosa [8]): 109.7%
MIC (Staphylococcus aureus [9]): > 200 µM
MIC (Pseudomonas aeruginosa [10]): > 200 µM
MIC (Pseudomonas aeruginosa [11]): 185 µM (≈ 64 µg/mL)
inhibition (Pseudomonas aeruginosa [15]): inactive
MIC (Pseudomonas aeruginosa [12]): > 200 µM
Activity (Pseudomonas aeruginosa [13]): 122.4%
inhibition (Pseudomonas aeruginosa [16]): inactive
MIC (Staphylococcus aureus [14]): > 200 µM
inhibition (Pseudomonas aeruginosa [17]): inactive

Cn1cc(O)c(=O)cc1COC(=O)c1cn(C2CC2)c2cc(N3CCNCC3)c(F)cc2c1=O
Activity [18]: Toxic
Activity (Pseudomonas aeruginosa [19]): 52.8%
survival at 48 h [20]: 50%
Activity (Pseudomonas aeruginosa [21]): 179.6%
Activity (Pseudomonas aeruginosa [22]): ~20%
MIC (Pseudomonas aeruginosa [1]): 8.54 µM (≈ 4 µg/mL)
Activity [23]: Non-toxic
MIC (Pseudomonas aeruginosa [2]): 1.07 µM (≈ 0.501 µg/mL)
Activity (Pseudomonas aeruginosa [24]): 75.7%
MIC (Staphylococcus aureus [3]): 2.13 µM (≈ 0.998 µg/mL)
Activity (Pseudomonas aeruginosa [25]): inactive
Activity (Pseudomonas aeruginosa [26]): inactive
Activity (Pseudomonas aeruginosa [4]): 38.3%
Activity (HEK293 [27]): Non-toxic
Activity (Pseudomonas aeruginosa [28]): ~20%
Activity (Pseudomonas aeruginosa [29]): Active
MIC (Staphylococcus aureus [5]): 4.27 µM (≈ 2 µg/mL)
Ratio (Pseudomonas aeruginosa [6]): 3
Activity (Pseudomonas aeruginosa [30]): 38.3%
MIC (Pseudomonas aeruginosa [7]): 2.13 µM (≈ 0.998 µg/mL)
Activity (Pseudomonas aeruginosa [8]): 52.8%
Activity (Pseudomonas aeruginosa [31]): Active
MIC (Staphylococcus aureus [9]): > 200 µM
Activity (Pseudomonas aeruginosa [32]): 197.5%
Ratio (Pseudomonas aeruginosa [33]): 3
MIC (Pseudomonas aeruginosa [10]): 4.27 µM (≈ 2 µg/mL)
MIC (Pseudomonas aeruginosa [11]): 2.13 µM (≈ 0.998 µg/mL)
inhibition at 4.27 µM (Pseudomonas aeruginosa [15]): 64.9%
MIC (Pseudomonas aeruginosa [12]): 2.13 µM (≈ 0.998 µg/mL)
Ratio (Pseudomonas aeruginosa [34]): 2
inhibition (Pseudomonas aeruginosa [35]): Dose-dependent-effect
Ratio (Pseudomonas aeruginosa [36]): 8
Activity (Pseudomonas aeruginosa [13]): 42.4%
inhibition at 4.27 µM (Pseudomonas aeruginosa [16]): 44.6%
MIC (Staphylococcus aureus [14]): 4.27 µM (≈ 2 µg/mL)
Activity (Pseudomonas aeruginosa [37]): Active
Activity (Pseudomonas aeruginosa [38]): 204.8%
Activity (A549): Non-toxic
Activity (Pseudomonas aeruginosa [39]): Active
Activity (Pseudomonas aeruginosa [40]): 42.4%
inhibition at 4.27 µM (Pseudomonas aeruginosa [17]): 53.7%

O=C(O)c1cn(C2CC2)c2cc(N3CCNCC3)c(F)cc2c1=O [CIPROFLOXACIN]
Activity (Pseudomonas aeruginosa [24]): 42.6%
Activity (Pseudomonas aeruginosa [41]): Active
Activity (Pseudomonas aeruginosa [32]): 89.5%
Activity (HEK293 [42]): 40%

Cc1cc(=O)c(O)c(CNC(=O)c2cn(C3CC3)c3cc(N4CCNCC4)c(F)cc3c2=O)n1C
MIC (Pseudomonas aeruginosa [1]): 66.5 µM (≈ 32 µg/mL)
MIC (Pseudomonas aeruginosa [2]): 17.1 µM (≈ 8.24 µg/mL)
MIC (Staphylococcus aureus [3]): 34.2 µM (≈ 16.5 µg/mL)
Activity (Pseudomonas aeruginosa [4]): 78.1%
MIC (Staphylococcus aureus [5]): 34.2 µM (≈ 16.5 µg/mL)
MIC (Pseudomonas aeruginosa [7]): 68.5 µM (≈ 33 µg/mL)
Activity (Pseudomonas aeruginosa [8]): 75.3%
MIC (Staphylococcus aureus [9]): > 200 µM
MIC (Pseudomonas aeruginosa [10]): 34.2 µM (≈ 16.5 µg/mL)
MIC (Pseudomonas aeruginosa [11]): 17.1 µM (≈ 8.24 µg/mL)
MIC (Pseudomonas aeruginosa [12]): 68.5 µM (≈ 33 µg/mL)
Activity (Pseudomonas aeruginosa [13]): 93.6%
MIC (Staphylococcus aureus [14]): 68.5 µM (≈ 33 µg/mL)
